Reference: patent US10907181B2, “Biosynthetic pathways and products” (REGENTS OF THE UNIVERSITY OF MINNESOTA, priority 2013, dated 2021)

Legend:
[1] = liquid-liquid solvent extraction at equal volume ratio, HPLC quantification; conditions: not told
[2] = liquid-liquid solvent extraction at equal volume ratio; conditions: not told
[3] = Extraction of anhydromevalonolactone with different organic solvents (extract efficiency and partition coefficient Kd, solvent/water); type: physicochemical
Source text: Purification of anhydromevalonolactone also was studied by extraction with different organic solvents (Table 1). Approximately 96% of the anhydromevalonolactone was extracted when chloroform was applied at a 1:1 volume ratio. […] NMR analysis indicated the anhydromevalonolactone was in the lactone form, instead of equilibrating with its hydroxyacid form (FIG. 6).
The fermentation broth from the bioreactor was harvested by centrifuge, and then was discolored by activated charcoal. The test tubes were filled with 5 mL fermentation broth and concentrated H3PO4 or H2SO4, then autoclaved for one hour to make anhydromevalonate, and then the concentrations of mevalonate and anhydromevalonate were measured by HPLC. Immiscible organic solvents were used to extraction anhydromevalonate from the reaction mixture.

partition coefficient (Kd) [1]: 24.89 concentration ratio (Kd) | partition coefficient (Kd) [2]: 25 concentration ratio (Kd) | Anhydromevalonolactone extract efficiency ([3]; solvent Benzene): 65.26% | Anhydromevalonolactone extract efficiency ([3]; solvent CHC13 (chloroform), 1:1 volume ratio): 96.14% | Anhydromevalonolactone extract efficiency ([3]; solvent CHC13 (chloroform), 1:1 volume ratio, listed as anhydromevalonolactone): Approximately 96% | Anhydromevalonolactone extract efficiency ([3]; solvent DIBK): 44.15% | Anhydromevalonolactone extract efficiency ([3]; solvent MIBK): 79.90% | Anhydromevalonolactone extract efficiency ([3]; solvent Oley): 35.56% | Anhydromevalonolactone extract efficiency ([3]; solvent ethyl acetate): 79.67%
SMILES: CC1=CC(=O)OCC1 [Anhydromevalonolactone, anhydromevalonolactone]
